Assay results published in patent US8748598B2, “Analogs of 3-O-acetyl-11-keto-beta-boswellic acid” (Laila Nutraceuticals, priority 2004, dated 2014).
Converted amounts (≈) assume the structure as drawn. Where two headings read alike, the source gives them in different places.

Columns and labels:
[1] = system: Jurkat; type: cell-based, human; set-up: minimum inhibitory concentration (MIC) Jurkat: unit not given here; conditions: for minimum inhibitory concentration (MIC) Jurkat: MTT assay
Method: (§1) MTT [3-(4,5-dimethylthiazol-2-yl)-2,5-diphenyltetrazolium bromide] incorporation based cell proliferation assay was performed as described previously (Reference). The cytotoxic efficacy of some analogs was evaluated in different cell lines by MTT cell proliferation assay kit (Roche Applied Sciences, Germany). The assay was carried out according to the instruction provided by the vendor. Briefly, in brief, equal numbers of cells was plated in 96-well flat-bottomed plates in 100 μl of medium and were exposed to different analogs selected from 1 to 63 at various concentrations up to 10 μg/ml for a period of three days. Vehicle control culture wells received only a maximum of 0.5% DMSO. Thereafter, 0.5 mg/ml of MTT reagent was added to each well and the microplate was incubated further for 4 h at 37° C. in presence of 5% CO2. Finally, the cells were solubilized by adding solubilizing solution and allowed to incubate at 37° C. overnight. After complete solubilization of the formazan crystals the absorbance was read at 540 nm in a microplate reader (BioRad, USA). The results (mean OD±SD) obtained from quadruplicate wells were used in calculation to determine the inhibition of cell proliferation (50% of inhibitory concentration, IC50) of the test compounds.
(§2) The cytotoxic properties of some analogs were evaluated by MTT incorporation assay. The methodology of the assay procedure was the same as mentioned in example 41.

[2] = system: PC3M; assay: Cytotoxicity MTT assay, PC3M; type: cell-based, human; set-up: minimum inhibitory concentration (MIC) PC3M: unit not given here; conditions: for minimum inhibitory concentration (MIC) PC3M: MTT assay
[3] = system: HePG2; assay: Cytotoxicity MTT assay, HePG2; type: cell-based, human; set-up: unit not given here
Method: as §1, §2

[4] = system: MDA-MB-231; assay: MTT cell proliferation assay, MDA-MB-231; type: cell-based, human; conditions: for Inhibition of cell proliferation MDA-MB-231 (IC50): three days
Method: as §1, §2

[5] = system: MCF-7; assay: MTT cell proliferation assay, MCF-7; type: cell-based, human; conditions: for Inhibition of cell proliferation MCF-7 (IC50): three days
Method: as §1, §2

[6] = system: A549; assay: MTT cell proliferation assay, A549; type: cell-based, human; conditions: Table 2; for inhibition at 10 µg/mL: Homo sapiens, A549; for Inhibition of cell proliferation A549 (IC50): three days
Method: as §1

[7] = system: potato 5-lipoxygenase; assay: 5-Lipoxygenase enzyme inhibitory activity; type: biochemical
Method: 5-Lipoxygenase enzyme inhibitory activity was measured using the method of Schewe et al. (Adv Enzymol, Vol 58, 191-272, 1986), modified by Reddanna et. al., (Methods of Enzymology, Vol 187, 268-277, 1990). The assay mixture contained 80 μM linoleic acid and sufficient amount of potato 5-lipoxygenase in 50 mM phosphate buffer (pH 6.3). The reaction was initiated by the addition of enzyme buffer mix to linoleic acid and the enzyme activity was monitored as the increase in absorbance at 234 nm. The reaction was monitored for 120 sec and the inhibitory potential of the test substances (29, 31, 33, 34, 35, 36, 39, 40, 43, 44, 46, 47, 48, 49, 50, 54, 57, 59, 62 & 63) was measured by incubating various concentrations of test substances two minutes before the addition of linoleic acid. All assays were performed three times. Percentage inhibition was calculated by comparing the slope of the curve obtained for test substances with that of the control.

[8] = system: B16; assay: MTT cell proliferation assay, B16; type: cell-based, mouse; conditions: Table 2; for Inhibition of cell proliferation B16 (IC50): three days
Method: as §1

[9] = system: A375; assay: MTT cell proliferation assay, A375; type: cell-based, human; conditions: Table 2; three days
Method: as §1

[10] = system: B16 F0 melanoma xenograft; assay: B16 F0 melanoma xenograft model; type: in vivo, C57B6J mice; conditions: 75 mg/kg daily intra-peritoneal, twelve days
Method: In vivo efficacy of LI-51255 against melanoma growth was evaluated in B16 F0 melanoma xenograft model of C57B6J mice. C57B6J mice of 6 weeks age (body weight 18-22 g) were purchased from National Institute of Nutrition (NIN), Hyderabad (India). Animals study protocols were approved by Institutional Ethics Committee (IAEC). All the studies were performed in compliance with the Committee for the Purpose of Control and Supervision of Experiments on Animals (CPCSEA) guidelines and OECD guidelines. Animals were allowed free access to standard feed and provided charcoal filtered and UV exposed water ad libitum. The animals were maintained at a controlled temperature (24-26° C.), humidity (45-70%), and 12 h/12 h of light/dark cycle.
To induce the melanoma tumor formation, sub-confluent B16F0 cells were harvested by brief trypsinization and 1×10^6 cells were injected subcutaneously in 0.2 mL phosphate-buffered saline. Drug treatment was started after development of palpable tumors (3-5 days after implantation of the cells). Drugs were prepared in phosphate-buffered saline (10% DMSO, v/v) and either 75 mg/kg of DTIC or different doses of LI-51255 (10 or 20 mg/kg) was administered daily through intra-peritoneal route. Vehicle treated control animals received only 10% DMSO in phosphate buffered saline. After twelve days of treatment, the animals were sacrificed by CO2 inhalation and tumors were excised and weighed.

[11] = Homo sapiens, MCF7, Table 4, 10 μg/ml, read-out: Percentage Inhibition of cell proliferation MCF-7
[12] = Homo sapiens, MDA-MB-231, Table 2, 10 ug/ml, read-out: Inhibition of cell proliferation MDA-MB-231, % at 10 ug/ml
[13] = Homo sapiens, MDA-MB-231, Table 4, 10 μg/ml, read-out: Percentage Inhibition of cell proliferation MDA-MB-231
[14] = Homo sapiens, MCF7, Table 2, 10 ug/ml, read-out: Inhibition of cell proliferation MCF-7, % at 10 ug/ml

## COc1cc(C(=O)O[C@@H]2CC[C@@]3(C)C(CC[C@]4(C)C3C(=O)C=C3C5[C@@H](C)[C@H](C)CC[C@]5(C)CC[C@]34C)[C@@]2(C)C(=O)O)cc(O)c1O (stereo partly drawn) [Analog 3]
[1]
  minimum inhibitory concentration (MIC) Jurkat: 125
[2]
  cytotoxicity against PC3M: significantly more potent
  minimum inhibitory concentration (MIC) PC3M: 30
[3]
  minimum inhibitory concentration (MIC) HePG2: 150

## C[C@H](N)C(=O)O[C@@H]1CC[C@@]2(C)C(CC[C@]3(C)C2C(=O)C=C2C4[C@@H](C)[C@H](C)CC[C@]4(C)CC[C@]23C)[C@@]1(C)C(=O)O (stereo partly drawn) [Analog 11]
[4]; Homo sapiens, MDA-MB-231, Table 4
  IC50: 28.9 µg/mL (≈ 53.4 µM)
[5]; Homo sapiens, MCF7, Table 4
  IC50: 33.3 µg/mL (≈ 61.5 µM)
[1]
  minimum inhibitory concentration (MIC) Jurkat: 50
[2]
  minimum inhibitory concentration (MIC) PC3M: 30
[3]
  minimum inhibitory concentration (MIC) HePG2: 100-150

## CC(=O)OC1CC[C@@]2(C)C(CC[C@]3(C)C2C(=O)C=C2C4[C@@H](C)[C@H](C)CC[C@]4(C)CC[C@]23C)[C@@]1(C)C(N)=O (stereo partly drawn) [Analog 19]
[4]; Table 4, 10 μg/ml
  Percentage Inhibition of cell proliferation MDA-MB-231: 38.72% at 10 μg/ml
[5]; Table 4
  IC50 values MCF-7: IC50 at 30.05 μg/ml
[1]
  cytotoxicity against leukemia cells: highly potent selectively
  minimum inhibitory concentration (MIC) Jurkat: 10
[2]
  minimum inhibitory concentration (MIC) PC3M: >150
[3]
  minimum inhibitory concentration (MIC) HePG2: >150

## CC(=O)O[C@@H]1CC[C@@]2(C)C(CC[C@]3(C)C2C(=O)C=C2C4[C@@H](C)[C@H](C)CC[C@]4(C)CC[C@]23C)[C@@]1(C)C(=O)NN (stereo partly drawn) [Analog 20]
[5]; [11]
  inhibition at 10 µg/mL: 44%
[1]
  minimum inhibitory concentration (MIC) Jurkat: 50
[2]
  cytotoxicity against PC3M: significantly more potent
  minimum inhibitory concentration (MIC) PC3M: 10
[3]
  minimum inhibitory concentration (MIC) HePG2: 40

## CC(=O)O[C@@H]1CC[C@@]2(C)C(CC[C@]3(C)C2C(=O)C=C2C4[C@@H](C)[C@H](C)CC[C@]4(C)CC[C@]23C)[C@@]1(C)C(=O)NC(C)C (stereo partly drawn) [Analog 30]
[4]; [12]
  inhibition at 10 µg/mL: 35%
[4]; [13]
  inhibition at 10 µg/mL: 35%
[5]; [14]
  inhibition at 10 µg/mL: 46%
[5]; [11]
  inhibition at 10 µg/mL: 46%
[6]; 10 ug/ml
  inhibition at 10 µg/mL: 18%

## CC(=O)O[C@@H]1CC[C@@]2(C)C(CC[C@]3(C)C2C(=O)C=C2C4[C@@H](C)[C@H](C)CC[C@]4(C)CC[C@]23C)[C@@]1(C)C(=O)N(C)C (stereo partly drawn) [Analog 31]
[7]
  % inhibition at 10 μg/ml: 18.57%
  % inhibition at 25 μg/ml: 36.73%
[4]; [12]
  inhibition at 10 µg/mL: 46%
[4]; [13]
  inhibition at 10 µg/mL: 46%
[6]; 10 ug/ml
  inhibition at 10 µg/mL: 17%
[8]; Mus musculus, B16, 10 ug/ml
  inhibition at 10 µg/mL: 10%

## COC(=O)CNC(=O)[C@]1(C)C2CC[C@]3(C)C(C(=O)C=C4C5[C@@H](C)[C@H](C)CC[C@]5(C)CC[C@]43C)[C@@]2(C)CC[C@H]1OC(C)=O (stereo partly drawn) [Analog 32]
[4]; [12]
  inhibition at 10 µg/mL: 41%
[4]; [13]
  inhibition at 10 µg/mL: 41%
[5]; [14]
  inhibition at 10 µg/mL: 14%
[5]; [11]
  inhibition at 10 µg/mL: 14%
[6]; 10 ug/ml
  inhibition at 10 µg/mL: 10%

## CC(=O)O[C@@H]1CC[C@@]2(C)C(CC[C@]3(C)C2C(=O)C=C2C4[C@@H](C)[C@H](C)CC[C@]4(C)CC[C@]23C)[C@@]1(C)C(=O)NCCCCCCN (stereo partly drawn) [Analog 33]
[7]
  % inhibition at 10 μg/ml: 24.66%
  % inhibition at 25 μg/ml: 52.98%
[5]; Table 2, 10 ug/ml
  Inhibition of cell proliferation MCF-7, % at 10 ug/ml: 36% at 10
[5]; Table 4, 10 μg/ml
  Percentage Inhibition of cell proliferation MCF-7: 36% at 10 μg/ml
[6]; 10 ug/ml
  Inhibition of cell proliferation A549, % at 10 ug/ml: 24% at 10
[8]
  Inhibition of cell proliferation B16 (IC50): 9.1 µg/mL

## CC(=O)O[C@@H]1CC[C@@]2(C)C(CC[C@]3(C)C2C(=O)C=C2C4[C@@H](C)[C@H](C)CC[C@]4(C)CC[C@]23C)[C@@]1(C)C(=O)NCCCCN (stereo partly drawn) [Analog 34]
[7]
  % inhibition at 10 μg/ml: 16.31%
  % inhibition at 25 μg/ml: 29.40%
[4]; Table 2
  Inhibition of cell proliferation MDA-MB-231 (IC50): 6.38 µg/mL
[4]; Table 4
  IC50 values MDA-MB-231: IC50 at 6.38 μg/ml
[5]; Table 2
  Inhibition of cell proliferation MCF-7 (IC50): 13.7 µg/mL
[5]; Table 4
  IC50 values MCF-7: IC50 at 13.7 μg/ml
[6]
  Inhibition of cell proliferation A549 (IC50): 10.5 µg/mL
[9]
  Inhibition of cell proliferation A375 (IC50): 4.12 µg/mL
[8]
  Inhibition of cell proliferation B16 (IC50): 3.84 µg/mL

## CC(=O)O[C@@H]1CC[C@@]2(C)C(CC[C@]3(C)C2C(=O)C=C2C4[C@@H](C)[C@H](C)CC[C@]4(C)CC[C@]23C)[C@@]1(C)C(=O)NCCCCCCCN (stereo partly drawn) [Analog 35]
[7]
  % inhibition at 10 μg/ml: 24.92%
  % inhibition at 25 μg/ml: 52.48%
[4]; Table 2
  Inhibition of cell proliferation MDA-MB-231 (IC50): 5.14 µg/mL
[4]; Table 4
  IC50 values MDA-MB-231: IC50 at 5.14 μg/ml
[5]; Table 2
  Inhibition of cell proliferation MCF-7 (IC50): 9.7 µg/mL
[5]; Table 4
  IC50 values MCF-7: IC50 at 9.7 μg/ml
[6]
  Inhibition of cell proliferation A549 (IC50): 5.86 µg/mL
[9]
  Inhibition of cell proliferation A375 (IC50): 2.76 µg/mL
[8]
  Inhibition of cell proliferation B16 (IC50): 2.82 µg/mL

## C[C@@H]1CC[C@]2(C)CC[C@]3(C)C(=CC(=O)C4[C@@]5(C)CC[C@@H](O)[C@](C)(C(=O)N6CCOCC6)C5CC[C@]43C)C2[C@H]1C (stereo partly drawn) [Analog 36]
[7]
  % inhibition at 10 μg/ml: 17.83%
  % inhibition at 25 μg/ml: 34.40%
[4]; Table 2
  Inhibition of cell proliferation MDA-MB-231 (IC50): 3.4 µg/mL
[4]; Table 4
  IC50 values MDA-MB-231: IC50 at 3.4 μg/ml
[5]; Table 2
  Inhibition of cell proliferation MCF-7 (IC50): 8.7 µg/mL
[5]; Table 4
  IC50 values MCF-7: IC50 at 8.7 μg/ml
[6]
  Inhibition of cell proliferation A549 (IC50): 4.78 µg/mL
[9]
  Inhibition of cell proliferation A375 (IC50): 2.75 µg/mL
[8]
  Inhibition of cell proliferation B16 (IC50): 2.44 µg/mL

## CN(C)/N=N/c1[nH]cnc1C(N)=O [DTIC, Dacarbazine, reference compound]
[10]
  % reduction of tumor burden (w.r.t control): 33.613%
  Average weight of tumor: 4.175 gm
[10]; listed as Dacarbazine
  % reduction of tumor burden (w.r.t control): 33.6%
